Source: ChEMBL document CHEMBL5634168, “The discovery of an anti-inflammatory monoterpenoid, neoroseoside from the Zea mays” (2024)
Calls of active or inactive are those of the source. The rule behind the calls is not given here.

What was measured:
RAW264.7 [1] = experiment: Antiinflammatory activity in LPS induced mouse RAW264.7 cells assessed as reduction in TNF-alpha production at 100 ug/ml measured after 24 hrs; type: functional; conditions: dose 100 µg/ml
Streptococcus sobrinus [2] = experiment: Antibacterial activity against Streptococcus sobrinus ATCC 33478 assessed as reduction in bacterial growth at 1.25 to 100 ug/ml by broth microdilution method; type: functional, organism-based; conditions: dose 1.25-100 µg/ml
RAW264.7 [3] = experiment: Antiinflammatory activity in LPS induced mouse RAW264.7 cells assessed as inhibition of IL-6 production at 100 ug/ml measured after 24 hrs; type: functional; conditions: dose 100 µg/ml
RAW264.7 [4] = experiment: Antiinflammatory activity in mouse RAW264.7 cells assessed as inhibition of TNF-alpha production; type: functional, cell-based; conditions: dose <= 100.0 µg/ml
RAW264.7 [5] = experiment: Antiinflammatory activity in mouse RAW264.7 cells assessed as inhibition of IL-6 production; type: functional, cell-based; conditions: dose <= 100.0 µg/ml
Streptococcus mutans [6] = experiment: Antibacterial activity against Streptococcus mutans ATCC 25175 assessed as reduction in bacterial growth at 1.25 to 100 ug/ml by broth microdilution method; type: functional, organism-based; conditions: dose 1.25-100 µg/ml
Streptococcus mutans [7] = experiment: Antibacterial activity against Streptococcus mutans ATCC 25175 assessed as reduction in bacterial growth at 1.25 to 100 ug/ml by broth microdilution method relative to control; type: functional; set-up: scale not given: the % may be the effect or the level left; conditions: dose 1.25-100 µg/ml; at 1.25 to 100 µg/mL
Streptococcus sobrinus [8] = experiment: Antibacterial activity against Streptococcus sobrinus ATCC 33478 assessed as reduction in bacterial growth at 1.25 to 100 ug/ml by broth microdilution method relative to control; type: functional; set-up: scale not given: the % may be the effect or the level left; conditions: dose 1.25-100 µg/ml; at 1.25 to 100 µg/mL

Structure (SMILES)	Activity (RAW264.7 [1]) [pg/mL]	Activity (Streptococcus sobrinus [2])	Activity (RAW264.7 [3]) [pg/mL]	Activity (RAW264.7 [4])	Activity (RAW264.7 [5])	Activity (Streptococcus mutans [6])	Activity (Streptococcus mutans [7]) [%]	Activity (Streptococcus sobrinus [8]) [%]
C[C@@H](/C=C/[C@@]1(O)C(C(=O)O)=CC(=O)CC1(C)C)O[C@@H]1O[C@H](CO)[C@@H](O)[C@H](O)[C@H]1O	9806.7	inactive	1570.7	Dose-Dependent Effect	Dose-Dependent Effect	inactive	–	–
C[C@@H]1O[C@@H](O[C@H]2[C@@H](O)[C@H](O)[C@@H](C)O[C@H]2c2c(O)cc3oc(-c4ccc(O)c(O)c4)cc(=O)c3c2O)[C@@H](O)[C@H](O)[C@H]1O	7473.5	–	766.6	Dose-Dependent Effect	Dose-Dependent Effect	–	24	26
C[C@H]1O[C@@H](c2c(O[C@@H]3O[C@H](CO)[C@@H](O)[C@H](O)[C@H]3O)cc3oc(-c4ccc(O)c(O)c4)cc(=O)c3c2O)C[C@H](O)[C@H]1O [FAROBIN A]	9606	–	1051.8	Dose-Dependent Effect	Dose-Dependent Effect	–	28	26
